Series [1] has as its target T1, WT M2 (Influenza A virus, UniProt P0DOF5). Put plainly: cell-based. Particulars: for inhibition at 100 µM: read-out: % inhibition at 100 µM in TEVC WT.
Target sequence in this assay (P0DOF5 whole entry, looked up): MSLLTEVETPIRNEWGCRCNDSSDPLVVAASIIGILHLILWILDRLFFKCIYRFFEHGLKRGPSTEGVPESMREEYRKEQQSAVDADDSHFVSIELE
Series [2] is described as follows: in vitro. As to conditions: dog.
Experimental: Cytotoxicity towards MDCK cells was assayed after 48 h drug exposure with the MTT tetrazolium dye assay as described [55].
Series [3] addresses T1, WT M2. The experiment in a line: cell-based. Also on record: expressed in transfected cells; host or cells: Saccharomyces cerevisiae, multicopy plasmid, GAL1 promoter. As to conditions: for growth of the strain expressing WT M2: 27% of control without amantadine, 48 h; for EC50: yeast expressing WT M2, growth measured after 40 h.
Target sequence in this assay (P0DOF5 whole entry): as the sequence (P0DOF5 whole entry, looked up) above
In series [4] the test system is influenza A/Udorn/72 WT virus. It counts as cell-based.
For series [5], the target named is mammalian Na+/H+ exchanger. Set-up: method as in PMID 3016497. Particulars: read-out: apparent Ki; cited from earlier work.
The test system of series [6] is M2 channel. Also on record: method as in PMID 20570509. As to conditions: weaker than amantadine; cited from earlier work.
Setting [7] is: read-out: EC50, yeast growth restoration.

Where “and” joins values, the source holds several entries; their conditions need not be identical. Identical values can stand only once. Entries after “also recorded” stand apart in the source; their conditions may differ. Counter-ions that a name gives are not always drawn. Like-named read-outs stand apart in the source and are kept apart here.

“3-(2-methylbut-3-yn-2-yl)-6-(methylthio)-1,2,3,4-tetrahydro-1,3,5-triazine hydroiodide [Compound 27]”: in series [1], the “% inhibition at 100 µM in TEVC WT” value was found to be 17.0 ± 1.9.

For the compound `NC12CC3CC(CC(C3)C1)C2` [Amantadine, reference compound], the CC50 in series [2] is about 100000 nM. Besides, the “growth of the strain expressing WT M2” value is 65 % of control in series [3] (0.3 µM amantadine), 95 % of control in series [3] (1 µM amantadine) and 95 % of control in series [3] (3 µM amantadine). The compound further displayed a growth increase in series [3] (1 µM, 384-well plate assay, yeast expressing WT M2) of 3 fold. Besides, the inhibition – broadly, how much of the control response was suppressed – at 100 µM in series [1] was 92%.

Regarding `O=C1NC(=S)NC(=O)C1=CNC12CC3CC(CC(C3)C1)C2` [Compound 1, 5-[(1-adamantylamino)methylene]-2-thioxodihydro-4,6(1H,5H)-pyrimidinedione], the EC50 in series [3] (setting [7]) came to 2500 nM.

Take `CC(=O)Nc1ccc(S(=O)(=O)NC23CC4CC(CC(C4)C2)C3)cc1` [Compound 2, N1-(4-[(1-adamantylamino)sulfonyl]phenyl)acetamide]: the EC50 in series [3] (setting [7]) was 5000 nM.

As for `c1cc2c(cc1NC1C3CC4CC(C3)CC1C4)OCO2` (centres unmarked) [Compound 3, 2-adamantyl (1,3-benzodioxol-5-yl)amine], the EC50 in series [3] (setting [7]) worked out at 20000 nM.

For the compound `O=[N+]([O-])c1ccc(CNC23CC4CC(CC(C4)C2)C3)cc1` [Compound 4, 1-adamantyl (4-nitrobenzyl)amine], the EC50 in series [3] (setting [7]) came out at 5000 nM. Besides, in series [1], the inhibition at 100 µM was 43.5%.

Consider `O=[N+]([O-])c1ccccc1CNC1C2CC3CC(C2)CC1C3` (centres unmarked) [Compound 5, 2-adamantyl (2-nitrobenzyl)amine], for which, in series [3] (setting [7]), the EC50 amounted to 5000 nM.

`CC(NC(=S)NC(=O)C=Cc1ccco1)C12CC3CC(CC(C3)C1)C2` (centres unmarked) [Compound 6, N-(([1-(1-adamantyl)ethyl]amino)carbonothioyl)-3-(2-furyl)acrylamide] registered a CC50 in series [2] of over 30000 nM. The EC50 in series [3] (EC50, yeast growth restoration) is 200 nM and < 1000 nM. Further, the “inhibition of plaque formation” value in series [4] is given as “almost completely inhibited”.

As to `CS/C(=N/C#N)NC12CC3CC(CC(C3)C1)C2` [Compound 7, (E)-methyl N-((3s,5s,7s)-adamantan-1-yl)-N'-cyanocarbamimidothioate], in series [3] (setting [7]), the EC50 turned out to be 12000 nM.

For `CNCC(=O)C12CC3CCC(CC(C3)C1)C2` [Compound 8, 2-(methylamino)-1-tricyclo[4.3.1.1~3,8~] undec-1-ylethanone hydrochloride], the EC50 in series [3] (setting [7]) amounted to 3000 nM.

With `CCc1noc(C)c1C(=O)NCC12CC3CC(CC(C3)C1)C2` [Compound 9, N-(adamantan-1-ylmethyl)-3-ethyl-5-methyl-1,2-oxazole-4-carboxamide], the EC50 in series [3] (setting [7]) is 800 nM and < 1000 nM.

As to `Cc1ncc(C23CC4CC(CC(C4)C2)C3)[nH]1` [Compound 10, 5-(adamantan-1-yl) -2-methyl-1H-imidazole], the CC50 in series [2] is over 100000 nM. For the same compound, the EC50 in series [3] (EC50, yeast growth restoration) is < 1000 nM and 300 nM. Moreover, the “inhibition of plaque formation” value in series [4] is recorded as “almost completely inhibited”.

On to `Cc1cc(C(=O)NC2C3CC4CC(C3)CC2C4)no1` (centres unmarked) [Compound 11, N-(adamantan-2-yl)-5-methyl-1,2-oxazole-3-carboxamide], for which the EC50 in series [3] (setting [7]) is 1500 nM.

`C1CNC(NCC23CC4CC(CC(C4)C2)C3)=N1` [Compound 12, N-(adamantan-1-ylmethyl)-4,5-dihydro-1H-imidazol-2-amine hydroiodide]: the EC50 in series [3] (setting [7]) was 400 nM and < 1000 nM.

Turning to `OCC1CCCN1CC12CC3CC(CC(C3)C1)C2` (centres unmarked) [Compound 13, [1-(adamantan-1-ylmethyl)pyrrolidin-2-yl] methanol hydrochloride], the EC50 in series [3] (setting [7]) turned out to be 15000 nM.

In series [2], `NC(N)=NC(=O)c1nc(Cl)c(N2CCCCCC2)nc1N` [Compound 14, Hexamethylene amiloride] registered a CC50 of 16000 nM. For the same compound, the Ki in series [5] is 200 nM. In addition, the EC50 in series [3] (EC50, yeast growth restoration) was 1100 nM and 1000 nM. The inhibition at 100 µM in series [1] stood at 89.9%.

`C=C1C(N)CC2CC1C2(C)C` (stereo not drawn) [Compound 15, 3-amino-beta-pinene]: the EC50 in series [3] (setting [7]) was 500 nM and < 1000 nM.

As for `CSC1=NCN(Cc2ccccc2)CN1` [Compound 18, 3-benzyl-6-(methylthio)-1,2,3,4-tetrahydro-1,3,5-triazine hydroiodide], the EC50 in series [3] (setting [7]) came to 12000 nM. For the same compound, the inhibition at 100 µM in series [1] was 4.5%.

Regarding `Cn1cccc1CNC1CCCCCCC1` [Compound 19, N-[(1-methyl-1H-pyrrol-2-yl)methyl] cyclooctanamine], the EC50 in series [3] (setting [7]) is 30000 nM.

Turning to `CN(C)c1nc(N)c(C(=O)NC(=N)N)nc1Cl` [Compound 20, 5-(N,N-Dimethyl)amiloride hydrochloride], in series [1], the “% inhibition at 100 µM in TEVC WT” value is recorded as “moderate inhibition” and the inhibition at 100 µM stood at 23.3 ± 1.9%.

Take `CCN(c1nc(N)c(C(=O)NC(=N)N)nc1Cl)C(C)C` [Compound 21, 5-(N-Ethyl-N-isopropyl)amiloride]: in series [1], the “% inhibition at 100 µM in TEVC WT” value is recorded as “moderate inhibition” and the inhibition at 100 µM worked out at 47.3 ± 0.5%.

With `CSC1=NCN(Cc2cccs2)CN1` [Compound 23, 6-(methylthio)-3-(thiophen-2-ylmethyl)-1,2,3,4-tetrahydro-1,3,5-triazine], the inhibition at 100 µM in series [1] turned out to be 8.1 ± 1.7%.

Take `CCSC1=NCN(Cc2ccco2)CN1` [Compound 24, 6-(ethylthio)-3-(furan-2-ylmethyl)-1,2,3,4-tetrahydro-1,3,5-triazine]: the inhibition at 100 µM in series [1] was found to be 17.9 ± 2.8%.

In the case of `Br.CSC1=NCN(C(C)(C)C)CN1` [Compound 25, 3-(tert-butyl)-6-(methylthio)-1,2,3,4-tetrahydro-1,3,5-triazine hydrobromide], the “% inhibition at 100 µM in TEVC WT” value in series [1] came to 13.3 ± 1.5.

For the compound `Br.CSC1=NCN(CCCO)CN1` [Compound 26, 3-(4-(methylthio)-5,6-dihydro-1,3,5-triazin-1(2H)-yl)propan-1-ol hydrobromide], the “% inhibition at 100 µM in TEVC WT” value in series [1] amounted to 5.5 ± 0.9.

For `CCSC1=NCN(Cc2ccccc2)CN1` [Compound 28, 3-benzyl-6-(ethylthio)-1,2,3,4-tetrahydro-1,3,5-triazine], in series [1], the inhibition at 100 µM amounted to 5.4 ± 1.6%.

With `CCSC1=NCN(Cc2cccs2)CN1` [Compound 29, 6-(ethylthio)-3-(thiophen-2-ylmethyl)-1,2,3,4-tetrahydro-1,3,5-triazine], in series [1], the inhibition at 100 µM came out at 6.7 ± 1.4%.

Turning to `CCSC1=NCN(CCc2cccs2)CN1` [Compound 30, 6-(ethylthio)-3-(2-(thiophen-2-yl)ethyl)-1,2,3,4-tetrahydro-1,3,5-triazine], the inhibition at 100 µM in series [1] turned out to be 1.1 ± 1.1%.

Consider `CCSC1=NCN(CC(C)C)CN1` [Compound 31, 6-(ethylthio)-3-isobutyl-1,2,3,4-tetrahydro-1,3,5-triazine], for which the inhibition at 100 µM in series [1] stood at 1.2 ± 0.6%.

As for `CCSC1=NCN(CC(C)(C)C)CN1` [Compound 32, 6-(ethylthio)-3-neopentyl-1,2,3,4-tetrahydro-1,3,5-triazine], the “% inhibition at 100 µM in TEVC WT” value in series [1] came to 4.7 ± 1.3.

On to `CCSC1=NCN(CC2CCCCC2)CN1` [Compound 33, 3-(cyclohexylmethyl)-6-(ethylthio)-1,2,3,4-tetrahydro-1,3,5-triazine], for which the EC50 in series [3] (setting [7]) worked out at 700 nM. The inhibition at 100 µM in series [1] stood at 63.9 ± 2%.

In turn, `CCSC1=NCN(C2CCCCCCC2)CN1` [Compound 34, 3-cyclooctyl-6-(ethylthio)-1,2,3,4-tetrahydro-1,3,5-triazine] came in with a CC50 in series [2] of 75000 nM. In series [3] (EC50, yeast growth restoration), this compound showed an EC50 of 300 nM. For the same compound, the “inhibition of plaque formation” value in series [4] is listed as “completely inhibited; also recorded: moderate inhibition”. Besides, the inhibition at 100 µM in series [1] was determined as 89.7%.

For `NC1CCCCCCC1` [Cyclooctylamine], the “binding affinity relative to amantadine” value in series [6] was 6 fold.

(Values after paper PMC3562233 (PLoS ONE, 2013).)
